Assay results reported in ChEMBL document CHEMBL5291721, “A preclinical secondary pharmacology resource illuminates target-adverse drug reaction associations of marketed drugs” (Nat Commun, 2023).

How the values were obtained:
[1] = biological target: 3',5'-cyclic-AMP phosphodiesterase 4D (Homo sapiens, UniProt Q08499); format: functional
Adenosine receptor A2a = Adenosine receptor A2a (Homo sapiens, UniProt P29274)
B2 bradykinin receptor = biological target: T1, B2 bradykinin receptor (Homo sapiens, UniProt P30411)
T1 sequence (P30411 whole entry): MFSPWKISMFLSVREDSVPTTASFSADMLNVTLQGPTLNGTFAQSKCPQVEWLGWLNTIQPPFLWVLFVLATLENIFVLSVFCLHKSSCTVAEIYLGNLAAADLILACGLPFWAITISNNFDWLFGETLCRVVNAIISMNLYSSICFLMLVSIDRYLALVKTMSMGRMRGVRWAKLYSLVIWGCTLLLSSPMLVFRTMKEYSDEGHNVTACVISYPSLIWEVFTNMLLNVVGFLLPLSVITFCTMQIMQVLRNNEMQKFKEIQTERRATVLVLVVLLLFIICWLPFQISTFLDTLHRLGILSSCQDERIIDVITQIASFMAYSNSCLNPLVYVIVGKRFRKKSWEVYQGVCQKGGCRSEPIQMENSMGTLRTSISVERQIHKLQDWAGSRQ

[2] = biological target: Beta-2 adrenergic receptor (Homo sapiens, UniProt P07550)
[3] = biological target: T2, 5-hydroxytryptamine receptor 1A (Homo sapiens, UniProt P08908); format: functional, cell-based
T2 sequence (P08908 whole entry): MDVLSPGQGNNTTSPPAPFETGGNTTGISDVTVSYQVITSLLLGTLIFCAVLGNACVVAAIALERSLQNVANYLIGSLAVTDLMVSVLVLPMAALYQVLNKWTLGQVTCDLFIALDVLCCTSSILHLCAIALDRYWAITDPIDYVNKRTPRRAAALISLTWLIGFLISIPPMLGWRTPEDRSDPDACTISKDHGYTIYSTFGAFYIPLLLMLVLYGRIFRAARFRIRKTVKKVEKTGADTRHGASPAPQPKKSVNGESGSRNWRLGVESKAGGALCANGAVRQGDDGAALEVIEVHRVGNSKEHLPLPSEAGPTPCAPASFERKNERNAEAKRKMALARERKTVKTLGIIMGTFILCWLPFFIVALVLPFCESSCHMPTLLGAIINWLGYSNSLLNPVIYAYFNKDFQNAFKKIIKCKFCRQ

[4] = biological target: 5-hydroxytryptamine receptor 2A (Homo sapiens, UniProt P28223); format: functional, cell-based
[5] = biological target: T3, Muscarinic acetylcholine receptor M2 (Homo sapiens, UniProt P08172); format: functional, cell-based
T3 sequence (P08172 whole entry): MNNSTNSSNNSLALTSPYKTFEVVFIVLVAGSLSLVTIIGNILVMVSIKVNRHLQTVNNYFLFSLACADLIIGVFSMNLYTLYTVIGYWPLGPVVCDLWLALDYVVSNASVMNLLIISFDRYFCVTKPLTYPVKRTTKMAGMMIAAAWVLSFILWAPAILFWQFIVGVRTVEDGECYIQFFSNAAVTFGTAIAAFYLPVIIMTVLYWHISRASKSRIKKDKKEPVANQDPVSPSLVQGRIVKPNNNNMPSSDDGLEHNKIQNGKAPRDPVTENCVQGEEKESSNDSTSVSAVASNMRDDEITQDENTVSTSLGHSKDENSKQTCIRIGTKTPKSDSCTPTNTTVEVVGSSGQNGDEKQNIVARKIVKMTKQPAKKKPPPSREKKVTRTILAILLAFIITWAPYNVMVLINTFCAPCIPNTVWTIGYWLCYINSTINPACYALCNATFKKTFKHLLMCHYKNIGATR

Mu-type opioid receptor = Mu-type opioid receptor (Homo sapiens, UniProt P35372); experiment: biochemical; format: functional
[6] = biological target: T4, Muscarinic acetylcholine receptor M1 (Homo sapiens, UniProt P11229); format: functional
T4 sequence (P11229 whole entry): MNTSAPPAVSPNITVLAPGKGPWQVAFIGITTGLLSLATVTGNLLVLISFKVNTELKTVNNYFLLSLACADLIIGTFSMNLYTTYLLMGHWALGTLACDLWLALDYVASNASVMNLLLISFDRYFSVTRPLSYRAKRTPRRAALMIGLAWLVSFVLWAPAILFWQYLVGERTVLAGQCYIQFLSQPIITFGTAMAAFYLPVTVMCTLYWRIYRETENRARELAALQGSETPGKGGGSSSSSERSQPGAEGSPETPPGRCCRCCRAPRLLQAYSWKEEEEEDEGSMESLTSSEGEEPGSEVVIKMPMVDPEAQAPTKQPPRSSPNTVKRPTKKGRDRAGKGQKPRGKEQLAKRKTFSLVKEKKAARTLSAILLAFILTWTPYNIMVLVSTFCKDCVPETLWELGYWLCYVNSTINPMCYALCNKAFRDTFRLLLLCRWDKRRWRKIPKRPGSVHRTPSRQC

Vasopressin V1a receptor = Vasopressin V1a receptor (Homo sapiens, UniProt P37288)
Cannabinoid receptor 1 = Cannabinoid receptor 1 (Homo sapiens, UniProt P21554)
Note: assay procedure not described here.

Chain of Vasopressin V1a receptor (P37288 whole entry): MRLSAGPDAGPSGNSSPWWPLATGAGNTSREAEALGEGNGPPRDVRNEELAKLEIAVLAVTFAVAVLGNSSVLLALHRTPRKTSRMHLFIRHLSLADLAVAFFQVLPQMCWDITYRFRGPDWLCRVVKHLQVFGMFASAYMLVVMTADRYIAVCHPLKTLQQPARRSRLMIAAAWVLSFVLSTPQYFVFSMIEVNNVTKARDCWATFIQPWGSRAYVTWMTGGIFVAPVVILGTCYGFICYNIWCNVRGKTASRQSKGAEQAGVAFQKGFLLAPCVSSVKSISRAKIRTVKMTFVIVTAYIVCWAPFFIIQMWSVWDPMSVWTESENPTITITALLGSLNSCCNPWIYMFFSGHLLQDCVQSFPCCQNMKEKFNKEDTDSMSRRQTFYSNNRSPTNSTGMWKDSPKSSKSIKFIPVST
Chain of 5-hydroxytryptamine receptor 2A (P28223 whole entry): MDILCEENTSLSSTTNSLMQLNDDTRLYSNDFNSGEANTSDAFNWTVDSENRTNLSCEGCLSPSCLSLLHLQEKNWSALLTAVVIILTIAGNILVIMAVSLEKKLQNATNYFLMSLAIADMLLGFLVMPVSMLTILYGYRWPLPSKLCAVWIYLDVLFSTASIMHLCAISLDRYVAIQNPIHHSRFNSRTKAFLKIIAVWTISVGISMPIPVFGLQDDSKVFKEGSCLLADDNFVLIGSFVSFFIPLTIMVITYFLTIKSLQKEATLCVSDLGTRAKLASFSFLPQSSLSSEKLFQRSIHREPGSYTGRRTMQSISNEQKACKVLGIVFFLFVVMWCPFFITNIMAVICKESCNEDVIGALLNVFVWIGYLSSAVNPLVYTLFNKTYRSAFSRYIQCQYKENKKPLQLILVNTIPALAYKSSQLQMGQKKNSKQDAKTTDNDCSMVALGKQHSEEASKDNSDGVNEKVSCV
Chain of 3',5'-cyclic-AMP phosphodiesterase 4D (Q08499 whole entry): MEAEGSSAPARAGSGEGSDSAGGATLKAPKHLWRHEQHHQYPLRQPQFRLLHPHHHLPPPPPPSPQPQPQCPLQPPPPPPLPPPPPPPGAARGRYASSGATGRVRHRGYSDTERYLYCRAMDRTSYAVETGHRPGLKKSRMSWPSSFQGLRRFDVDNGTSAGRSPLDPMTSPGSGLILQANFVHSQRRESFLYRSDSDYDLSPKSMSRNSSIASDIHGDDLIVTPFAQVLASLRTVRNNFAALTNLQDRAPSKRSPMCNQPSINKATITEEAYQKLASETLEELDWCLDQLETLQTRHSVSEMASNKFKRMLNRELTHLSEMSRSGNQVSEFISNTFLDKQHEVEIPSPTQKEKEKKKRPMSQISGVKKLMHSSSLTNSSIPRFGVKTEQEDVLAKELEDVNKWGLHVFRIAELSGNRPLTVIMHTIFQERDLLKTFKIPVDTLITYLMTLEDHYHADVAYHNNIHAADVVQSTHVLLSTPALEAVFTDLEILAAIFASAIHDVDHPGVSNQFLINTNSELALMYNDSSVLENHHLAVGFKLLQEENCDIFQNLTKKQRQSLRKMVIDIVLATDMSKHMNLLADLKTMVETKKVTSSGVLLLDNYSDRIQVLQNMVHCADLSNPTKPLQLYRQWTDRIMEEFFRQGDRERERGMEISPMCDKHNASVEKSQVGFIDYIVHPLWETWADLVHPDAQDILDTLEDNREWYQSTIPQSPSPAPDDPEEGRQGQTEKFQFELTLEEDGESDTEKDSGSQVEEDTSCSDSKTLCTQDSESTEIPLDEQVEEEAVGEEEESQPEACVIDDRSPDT
Chain of Adenosine receptor A2a (P29274 whole entry): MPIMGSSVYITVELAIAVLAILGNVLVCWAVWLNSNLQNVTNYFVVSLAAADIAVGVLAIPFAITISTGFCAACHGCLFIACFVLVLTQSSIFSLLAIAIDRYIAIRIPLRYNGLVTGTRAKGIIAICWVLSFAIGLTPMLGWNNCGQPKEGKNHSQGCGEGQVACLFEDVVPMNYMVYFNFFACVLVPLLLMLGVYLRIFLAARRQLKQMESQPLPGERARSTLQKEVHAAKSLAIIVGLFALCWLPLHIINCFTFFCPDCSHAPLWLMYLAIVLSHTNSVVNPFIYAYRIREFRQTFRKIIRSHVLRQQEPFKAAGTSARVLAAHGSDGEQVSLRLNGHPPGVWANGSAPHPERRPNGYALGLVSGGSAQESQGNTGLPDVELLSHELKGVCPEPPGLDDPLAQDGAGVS
Chain of Mu-type opioid receptor (P35372 whole entry): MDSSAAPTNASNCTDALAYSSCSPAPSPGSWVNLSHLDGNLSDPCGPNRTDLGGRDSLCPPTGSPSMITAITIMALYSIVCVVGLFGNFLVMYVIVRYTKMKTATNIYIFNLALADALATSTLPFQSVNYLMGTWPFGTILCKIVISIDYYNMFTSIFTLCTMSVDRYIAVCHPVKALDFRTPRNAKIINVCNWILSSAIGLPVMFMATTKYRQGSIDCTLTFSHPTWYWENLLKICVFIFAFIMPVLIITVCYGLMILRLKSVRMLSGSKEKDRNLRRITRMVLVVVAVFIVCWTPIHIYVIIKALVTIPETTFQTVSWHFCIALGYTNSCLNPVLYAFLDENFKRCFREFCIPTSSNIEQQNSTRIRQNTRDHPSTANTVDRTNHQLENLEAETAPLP
Chain of Beta-2 adrenergic receptor (P07550 whole entry): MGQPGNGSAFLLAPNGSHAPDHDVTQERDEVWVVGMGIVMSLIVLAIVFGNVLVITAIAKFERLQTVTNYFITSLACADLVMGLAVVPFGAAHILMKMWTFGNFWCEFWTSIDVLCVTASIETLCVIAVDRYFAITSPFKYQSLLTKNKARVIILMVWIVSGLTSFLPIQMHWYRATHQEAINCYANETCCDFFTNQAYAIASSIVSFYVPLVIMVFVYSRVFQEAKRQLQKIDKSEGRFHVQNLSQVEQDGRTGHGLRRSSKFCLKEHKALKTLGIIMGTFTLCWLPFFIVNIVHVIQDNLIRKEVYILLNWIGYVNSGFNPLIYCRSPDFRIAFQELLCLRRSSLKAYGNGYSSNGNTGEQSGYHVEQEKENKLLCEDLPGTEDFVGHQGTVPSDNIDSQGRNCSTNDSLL
Chain of Cannabinoid receptor 1 (P21554 whole entry): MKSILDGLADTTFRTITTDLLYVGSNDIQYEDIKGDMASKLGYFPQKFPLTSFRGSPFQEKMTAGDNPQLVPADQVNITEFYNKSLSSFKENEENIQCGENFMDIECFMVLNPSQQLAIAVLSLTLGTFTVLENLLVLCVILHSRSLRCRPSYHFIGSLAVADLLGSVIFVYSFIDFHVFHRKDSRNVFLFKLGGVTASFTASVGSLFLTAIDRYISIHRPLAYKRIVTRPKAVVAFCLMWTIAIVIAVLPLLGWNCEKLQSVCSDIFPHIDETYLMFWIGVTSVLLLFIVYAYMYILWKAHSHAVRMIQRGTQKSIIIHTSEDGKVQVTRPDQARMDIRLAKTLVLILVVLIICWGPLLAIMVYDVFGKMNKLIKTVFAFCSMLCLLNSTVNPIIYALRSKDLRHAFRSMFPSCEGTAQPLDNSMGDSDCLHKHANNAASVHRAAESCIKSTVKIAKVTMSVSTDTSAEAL

SMILES | AC50 [1] | AC50 (Adenosine receptor A2a) | AC50 (B2 bradykinin receptor) | AC50 [2] | AC50 [3] | AC50 [4] | AC50 [5] | AC50 (Mu-type opioid receptor) | AC50 [6] | AC50 (Vasopressin V1a receptor) | AC50 (Cannabinoid receptor 1)
N#Cc1ccccc1-c1cc(-c2ccccn2)cn(-c2ccccc2)c1=O | 13 µM | > 30 µM | > 30 µM | > 30 µM | > 30 µM | > 30 µM | > 30 µM | > 30 µM | > 30 µM | > 30 µM | 
N=C(N)NCCCCCCC(=O)NC(O)C(=O)NCCCCNCCCN (stereo not drawn) | > 30 µM | > 30 µM | > 30 µM | > 30 µM | > 30 µM | > 30 µM | > 30 µM | > 30 µM | > 30 µM | > 30 µM | 
COc1ccc(/C=C/C(=O)Nc2ccccc2C(=O)O)cc1OC | 21 µM | > 30 µM | > 30 µM | > 30 µM | > 30 µM |  | > 30 µM | > 30 µM |  |  | > 30 µM
O=C(CCCN1CCC(n2c(O)nc3ccccc32)CC1)c1ccc(F)cc1 [BENPERIDOL] | > 30 µM | > 30 µM | > 30 µM | 8.6 µM | 0.166 µM | 0.12 µM | > 30 µM | > 30 µM | 13 µM | > 30 µM | 
CCC(=O)OCC(=O)[C@@]1(OC(=O)CC)[C@@H](C)C[C@H]2[C@@H]3CCC4=CC(=O)C=C[C@]4(C)[C@@]3(F)[C@@H](O)C[C@@]21C [BETAMETHASONE DIPROPIONATE] | > 30 µM | > 30 µM | > 30 µM | > 30 µM | > 30 µM | > 30 µM | > 30 µM | > 30 µM | > 30 µM | > 30 µM | 
CCOC(=O)NNc1ccc(N(CC)CC(C)O)nn1 (stereo not drawn) [CADRALAZINE] | > 30 µM | > 30 µM | > 30 µM | > 30 µM | 27 µM | > 30 µM | > 30 µM | > 30 µM | > 30 µM | > 30 µM | 
CCCCCCNC(=O)n1cc(F)c(=O)[nH]c1=O [CARMOFUR] | > 30 µM | > 30 µM | > 30 µM | > 30 µM | > 30 µM |  | > 30 µM | > 30 µM |  |  | > 30 µM
CCCCC[C@H](O)/C=C/[C@H]1[C@H](O)CC(=O)[C@@H]1C/C=C\CCCC(=O)O [DINOPROSTONE] | 11 µM | > 30 µM | > 30 µM | > 30 µM |  | > 30 µM | > 30 µM | > 30 µM | > 30 µM | > 30 µM | 
CC(C)c1cc2c(cc1S(=O)(=O)O)[C@@]1(C)CCC[C@@](C)(C(=O)O)[C@@H]1CC2 [ECABET] | > 30 µM | > 30 µM | > 30 µM | > 30 µM |  | > 30 µM | > 30 µM | > 30 µM | > 30 µM | > 30 µM | 
CCCN(CC)C(CC)C(=O)Nc1c(C)cccc1C (stereo not drawn) [ETIDOCAINE] | > 30 µM | > 30 µM | > 30 µM | > 30 µM |  | > 30 µM | > 30 µM | > 30 µM | > 30 µM | > 30 µM | 
C#C[C@]1(O)CC[C@H]2[C@@H]3CCC4=CC(=O)CCC4=C3C=C[C@@]21CC [GESTRINONE] | 4.1 µM | > 30 µM | > 30 µM | > 30 µM | > 30 µM | > 30 µM | > 30 µM | > 30 µM | > 30 µM | > 30 µM | 
CCCCCCOC(=O)CCC(=O)CN [HEXAMINOLEVULINATE] | > 30 µM | > 30 µM | > 30 µM | > 30 µM | > 30 µM | > 30 µM | > 30 µM | > 30 µM | > 30 µM | > 30 µM | 
CC(C)OC(=O)C(C(=O)OC(C)C)=C1SC=CS1 [MALOTILATE] | 4.2 µM | > 30 µM | > 30 µM | > 30 µM |  | > 30 µM | > 30 µM | > 30 µM | > 30 µM | > 30 µM | 
CN(c1nccc(=O)[nH]1)C1CCN(c2nc3ccccc3n2Cc2ccc(F)cc2)CC1 [MIZOLASTINE] | 13 µM | > 30 µM | > 30 µM | > 30 µM |  | > 30 µM | > 30 µM | > 30 µM | 0.011 µM | > 30 µM | 
CC[N+]1(C)CCCC(OC(=O)C(O)(c2ccccc2)c2ccccc2)C1 (stereo not drawn) [PIPENZOLATE] | > 30 µM | > 30 µM | > 30 µM | > 30 µM | > 30 µM | > 30 µM | > 30 µM | > 30 µM | 0.023 µM | > 30 µM | 
CC(=O)c1ccc2c(c1)N(CCCN1CCC(CCO)CC1)c1ccccc1S2 [PIPERACETAZINE] | > 30 µM | > 30 µM | > 30 µM | 22 µM | 0.043 µM | 0.3 µM | > 30 µM | > 30 µM | 7.9 µM | > 30 µM | 
Cc1ccc(=O)n(-c2ccccc2)c1 [PIRFENIDONE] | > 30 µM | > 30 µM | > 30 µM | > 30 µM | > 30 µM | > 30 µM | > 30 µM | > 30 µM | > 30 µM | > 30 µM | 
CCN(CC)CC(=O)Oc1ccc(NC(C)=O)cc1 [PROPACETAMOL] | > 30 µM | > 30 µM | > 30 µM | > 30 µM |  | > 30 µM | > 30 µM | > 30 µM | > 30 µM | > 30 µM | 
CCCOC(C(=O)OC1CCN(C)CC1)(c1ccccc1)c1ccccc1 [PROPIVERINE] | > 30 µM | > 30 µM | > 30 µM | > 30 µM |  | 26 µM | > 30 µM | 3.6 µM | 1.7 µM | > 30 µM | 
Cc1ccc2c(-c3ccccc3)nc(=O)n(C(C)C)c2c1 [PROQUAZONE] | 0.81 µM | > 30 µM | > 10 µM | > 30 µM |  | > 30 µM | > 30 µM | > 30 µM | > 30 µM | > 30 µM | 
CN1c2ccccc2C(NCCCCCCC(=O)O)c2ccc(Cl)cc2S1(=O)=O (stereo not drawn) [TIANEPTINE] | > 30 µM | > 30 µM | > 30 µM | > 30 µM | > 30 µM | > 30 µM | > 30 µM | 2.6 µM | > 30 µM | > 30 µM | 
